# Measurements taken from ChEMBL document CHEMBL1155059, “Synthesis and biological evaluation of trisubstituted imidazole derivatives as inhibitors of p38alpha mitogen-activated protein kinase” (Bioorg Med Chem Lett, 2008).
# Columns and labels:
# [1] = biological target: Mitogen-activated protein kinase 14 (Homo sapiens, UniProt Q16539); experiment: Inhibition of human recombinant p38alpha MAPK expressed in Escherichia coli by radioisotopic protein kinase assay
# TGF-beta receptor type-1 = biological target: T1, TGF-beta receptor type-1 (Homo sapiens, UniProt P36897); experiment: Inhibition of GST fused human recombinant ALK5 expressed in Sf9 cells by radioisotopic protein kinase assay
# T1 sequence (P36897 whole entry): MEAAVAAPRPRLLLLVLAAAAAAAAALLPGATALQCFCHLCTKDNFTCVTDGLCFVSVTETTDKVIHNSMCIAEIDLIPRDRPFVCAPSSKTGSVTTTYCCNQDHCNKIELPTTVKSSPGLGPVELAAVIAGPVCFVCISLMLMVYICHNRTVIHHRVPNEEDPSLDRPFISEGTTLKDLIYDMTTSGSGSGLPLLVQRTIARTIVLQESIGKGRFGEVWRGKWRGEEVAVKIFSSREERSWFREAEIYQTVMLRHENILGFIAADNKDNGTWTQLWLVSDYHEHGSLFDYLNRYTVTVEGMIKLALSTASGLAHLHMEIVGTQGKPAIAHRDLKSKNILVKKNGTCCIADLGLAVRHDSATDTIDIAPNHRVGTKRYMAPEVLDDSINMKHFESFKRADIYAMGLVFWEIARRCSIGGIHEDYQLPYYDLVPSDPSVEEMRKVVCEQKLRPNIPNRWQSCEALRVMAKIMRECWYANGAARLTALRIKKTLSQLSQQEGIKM
# Mitogen-activated protein kinase 14, sequence (Q16539 whole entry, the tested form may be a part): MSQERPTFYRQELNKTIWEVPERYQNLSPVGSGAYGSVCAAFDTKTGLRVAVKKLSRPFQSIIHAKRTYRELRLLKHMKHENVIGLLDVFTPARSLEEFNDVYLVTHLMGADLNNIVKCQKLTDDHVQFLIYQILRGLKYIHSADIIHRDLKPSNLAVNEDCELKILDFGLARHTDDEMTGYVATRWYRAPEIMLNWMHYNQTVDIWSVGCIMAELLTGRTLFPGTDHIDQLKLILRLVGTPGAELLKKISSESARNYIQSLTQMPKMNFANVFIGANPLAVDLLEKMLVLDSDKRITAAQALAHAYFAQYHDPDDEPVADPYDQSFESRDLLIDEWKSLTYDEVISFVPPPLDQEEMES
Structure (SMILES),IC50 [1],IC50 (TGF-beta receptor type-1)
COc1nccc(-c2c(-c3ccc(F)cc3)ncn2Cc2ccc(C(N)=O)cc2)n1,916 nM,> 1000 nM
C[C@H](Nc1nccc(-c2ncn(Cc3cccc(C(N)=O)c3)c2-c2ccc(F)cc2)n1)c1ccccc1,> 1000 nM,> 1000 nM
COc1ccc(CNc2nccc(-c3[nH]c(Cc4cccc(C#N)c4)nc3-c3ccc(F)cc3)n2)cc1,148 nM,> 1000 nM
COc1nccc(-c2c(-c3ccc(F)cc3)ncn2Cc2cccc(C(N)=O)c2)n1,225 nM,> 1000 nM
COc1nccc(-c2c(-c3ccc(F)cc3)ncn2Cc2cccc(C#N)c2)n1,260 nM,> 1000 nM
NC(=O)c1cccc(Cn2cnc(-c3ccc(F)cc3)c2-c2ccnc(N)n2)c1,344 nM,> 1000 nM
COc1nccc(-c2c(-c3ccc(F)cc3)ncn2Cc2ccc(C#N)cc2)n1,859 nM,> 1000 nM
COc1nccc(-c2ncn(Cc3cccc(C(N)=O)c3)c2-c2ccc(F)cc2)n1,> 1000 nM,> 1000 nM
COc1nccc(-c2ncn(Cc3ccc(C(N)=O)cc3)c2-c2ccc(F)cc2)n1,> 1000 nM,> 1000 nM
C[C@H](Nc1nccc(-c2ncn(Cc3ccc(C(N)=O)cc3)c2-c2ccc(F)cc2)n1)c1ccccc1,> 1000 nM,> 1000 nM
COc1ccc(CNc2nccc(-c3c(-c4ccc(F)cc4)ncn3Cc3cccc(C#N)c3)n2)cc1,191 nM,> 1000 nM
C[C@H](Nc1nccc(-c2c(-c3ccc(F)cc3)ncn2Cc2cccc(C#N)c2)n1)c1ccccc1,140 nM,> 1000 nM
Cc1cccc(-c2[nH]c(Cc3cccc(C(N)=O)c3)nc2-c2ccc3nccnc3c2)n1,4300 nM,–
COc1ccc(CNc2nccc(-c3ncn(Cc4cccc(C#N)c4)c3-c3ccc(F)cc3)n2)cc1,> 1000 nM,> 1000 nM
N#Cc1cccc(Cn2cnc(-c3ccnc(N)n3)c2-c2ccc(F)cc2)c1,> 1000 nM,> 1000 nM
NC(=O)c1cccc(Cn2cnc(-c3ccnc(N)n3)c2-c2ccc(F)cc2)c1,> 1000 nM,> 1000 nM
C[C@H](Nc1nccc(-c2ncn(Cc3cccc(C#N)c3)c2-c2ccc(F)cc2)n1)c1ccccc1,> 1000 nM,> 1000 nM
C[C@H](Nc1nccc(-c2ncn(Cc3ccc(C#N)cc3)c2-c2ccc(F)cc2)n1)c1ccccc1,> 1000 nM,> 1000 nM
COc1nccc(-c2ncn(Cc3ccc(C#N)cc3)c2-c2ccc(F)cc2)n1,> 1000 nM,> 1000 nM
N#Cc1cccc(Cn2cnc(-c3ccnc(NC4CC4)n3)c2-c2ccc(F)cc2)c1,> 1000 nM,> 1000 nM
NC(=O)N(c1nc(-c2ccc(F)cc2)cs1)c1c(Cl)cccc1Cl,822 nM,–
NC(=O)c1cccc(Cn2cnc(-c3ccnc(NC4CC4)n3)c2-c2ccc(F)cc2)c1,> 1000 nM,> 1000 nM
N#Cc1cccc(Cn2cnc(-c3ccc(F)cc3)c2-c2ccnc(N)n2)c1,101 nM,> 1000 nM
COc1nccc(-c2ncn(Cc3cccc(C#N)c3)c2-c2ccc(F)cc2)n1,> 1000 nM,> 1000 nM

# Now those with a lower IC50 [1], led by results:
IC50 [1],IC50 (TGF-beta receptor type-1),Structure (SMILES)
48.5 nM,> 1000 nM,COc1nccc(-c2[nH]c(Cc3cccc(C(N)=O)c3)nc2-c2ccc(F)cc2)n1
62.8 nM,> 1000 nM,COc1nccc(-c2[nH]c(Cc3cccc(C#N)c3)nc2-c2ccc(F)cc2)n1
55.6 nM,> 1000 nM,C[C@H](Nc1nccc(-c2c(-c3ccc(F)cc3)ncn2Cc2ccc(C(N)=O)cc2)n1)c1ccccc1
87.1 nM,> 1000 nM,C[C@H](Nc1nccc(-c2c(-c3ccc(F)cc3)ncn2Cc2ccc(C#N)cc2)n1)c1ccccc1
55.1 nM,> 1000 nM,C[C@H](Nc1nccc(-c2c(-c3ccc(F)cc3)ncn2Cc2cccc(C(N)=O)c2)n1)c1ccccc1
95.4 nM,> 1000 nM,C[C@H](Nc1nccc(-c2[nH]c(Cc3cccc(C#N)c3)nc2-c2ccc(F)cc2)n1)c1ccccc1
78 nM,> 1000 nM,C[C@H](Nc1nccc(-c2[nH]c(Cc3cccc(C(N)=O)c3)nc2-c2ccc(F)cc2)n1)c1ccccc1
62.6 nM,> 1000 nM,N#Cc1cccc(Cn2cnc(-c3ccc(F)cc3)c2-c2ccnc(NC3CC3)n2)c1
28 nM,> 1000 nM,N#Cc1cccc(Cc2nc(-c3ccc(F)cc3)c(-c3ccnc(N)n3)[nH]2)c1
31 nM,> 1000 nM,NC(=O)c1cccc(Cc2nc(-c3ccc(F)cc3)c(-c3ccnc(NC4CC4)n3)[nH]2)c1
54.4 nM,> 1000 nM,N#Cc1cccc(Cc2nc(-c3ccc(F)cc3)c(-c3ccnc(NC4CC4)n3)[nH]2)c1
27.6 nM,> 1000 nM,NC(=O)c1cccc(Cn2cnc(-c3ccc(F)cc3)c2-c2ccnc(NC3CC3)n2)c1
